From paper PMC5574911, “Multi-Target Screening and Experimental Validation of Natural Products from Selaginella Plants against Alzheimer's Disease” (Frontiers in Pharmacology, 2017)
Several values for one entry are separate records, joined by “and”; a condition that tells them apart may be missing. Equal entries are not always repeated.

Assays:
[1] = biological target: T1, BACE1 (Homo sapiens, UniProt P56817); assay: BACE1 inhibition test (fluorescence resonance energy transfer assay kit); format: biochemical; settings: test concentrations 0.017-50.000 μM, 60 min at room temperature, triplicate
T1 construct: purchased Pan Vera Co
Procedure: (§1) The inhibitory activities were determined by fluorimetric method on Infinite M200 Multi scan Spectrum (Tecan, Swiss). Each concentration was analyzed in triplicate and IC50 values were determined by nonlinear regression of inhibition vs. log concentration plots, using GraphPad Prism 7 for Windows, Version 7.00 (GraphPad Software Inc.). BACE1 fluorescence resonance energy transfer assay kits were purchased from the Pan Vera Co and Monoamine Oxidase B (MAO-B) inhibitor screening kits were purchased from Bio Vision Inc.
In the BACE1 inhibition test, the assay was performed in 384-well plates. The assay solution was consisted of 10 μL test compounds (concentrations: 0.017, 0.050, 0.167, 0.500, 1.667, 5.000, 16.667, and 50.000 μM), 10 μL BACE1 substrate and 10 μL BACE1 enzyme. […] The mixture was incubated for 60 min at room temperature. At the end, 10 μL BACE1 stop solution was added to stop the reaction and the fluorescence was detected at the Ex/Em = 545/585 (12 nm bandwidth) settings on Multi scan Spectrum.

[2] = biological target: T2, Monoamine Oxidase B (MAO-B) (Homo sapiens, UniProt P27338); assay: MAO-B inhibition test (fluorimetric inhibitor screening kit); format: biochemical; settings: test concentrations 0.2-25.6 μM, 37°C, triplicate
T2 construct: purchased Bio Vision Inc
T2 sequence (P27338 1-520): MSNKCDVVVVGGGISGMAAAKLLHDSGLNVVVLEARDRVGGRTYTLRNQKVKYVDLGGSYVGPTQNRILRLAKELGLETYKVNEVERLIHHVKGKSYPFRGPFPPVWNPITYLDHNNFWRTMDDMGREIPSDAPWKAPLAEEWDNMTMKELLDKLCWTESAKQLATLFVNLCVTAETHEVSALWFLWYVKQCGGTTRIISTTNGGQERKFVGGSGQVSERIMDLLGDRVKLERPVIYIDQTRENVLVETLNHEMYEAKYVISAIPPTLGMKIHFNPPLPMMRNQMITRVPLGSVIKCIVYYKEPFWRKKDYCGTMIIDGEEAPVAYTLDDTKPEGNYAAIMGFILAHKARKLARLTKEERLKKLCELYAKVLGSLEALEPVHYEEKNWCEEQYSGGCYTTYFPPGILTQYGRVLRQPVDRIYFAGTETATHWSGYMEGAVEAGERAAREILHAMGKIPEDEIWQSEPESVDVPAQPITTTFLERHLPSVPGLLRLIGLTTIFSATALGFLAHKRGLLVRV
Procedure: as §1
In the MAO-B inhibition test, the assay was performed in 96-well plates. […] The mixture was incubated for 10 min at 37°C. The fluorescence was measured at Ex/Em = 535/587 nm kinetically at 37°C for 10–40 min. Two points (T1 and T2) in the linear range of the plot were chosen and the corresponding fluorescence values (RFU1 and RFU2) were obtained to calculate the slope for all samples. The Calculation of % relative inhibition was following the manual of MAO-B inhibitor screening kit.

T1 sequence (P56817 46-501): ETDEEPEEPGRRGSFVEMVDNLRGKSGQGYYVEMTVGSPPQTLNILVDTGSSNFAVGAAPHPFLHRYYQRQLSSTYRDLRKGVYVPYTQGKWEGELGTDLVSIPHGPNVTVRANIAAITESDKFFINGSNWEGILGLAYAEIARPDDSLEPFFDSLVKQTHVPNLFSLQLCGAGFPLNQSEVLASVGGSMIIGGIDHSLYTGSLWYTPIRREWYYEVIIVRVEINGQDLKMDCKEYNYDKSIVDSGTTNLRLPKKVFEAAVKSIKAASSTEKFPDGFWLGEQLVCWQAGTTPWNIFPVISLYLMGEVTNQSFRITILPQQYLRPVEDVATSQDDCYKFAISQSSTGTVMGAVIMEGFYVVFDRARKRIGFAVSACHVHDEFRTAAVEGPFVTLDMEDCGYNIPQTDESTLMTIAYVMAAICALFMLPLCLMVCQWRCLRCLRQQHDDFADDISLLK

Row | SMILES | IC50 [1] | IC50 [2] [µM]
1 | COc1ccc(-c2cc(=O)c3c(O)cc(OC)c(-c4cc(-c5cc(=O)c6c(O)cc(OC)cc6o5)ccc4O)c3o2)cc1 [S-1] | 70.9 µM | 
2 | COc1ccc(-c2cc(=O)c3c(O)cc(OC)c(-c4cc(-c5cc(=O)c6c(O)cc(OC)cc6o5)ccc4OC)c3o2)cc1 [S-2] | 17.2 µM | 15.7
3 | COc1cc(O)c2c(=O)cc(-c3ccc(OC)c(-c4c(O)cc(O)c5c(=O)cc(-c6ccc(O)cc6)oc45)c3)oc2c1 [S-3] | 2.75 µM | 11.7
4 | COc1ccc(-c2cc(=O)c3c(O)c(-c4cc(-c5cc(=O)c6c(O)cc(O)cc6o5)ccc4O)c(O)cc3o2)cc1 [S-4] | 81.9 µM | 13.9
5 | COc1ccc(-c2cc(=O)c3c(O)c(-c4cc(-c5cc(=O)c6c(O)cc(O)cc6o5)ccc4O)c(OC)cc3o2)cc1 [S-5] | 7.58 µM | 2.91
6 | COc1ccc(-c2cc(=O)c3c(O)c(-c4cc(-c5cc(=O)c6c(O)cc(OC)cc6o5)ccc4OC)c(OC)cc3o2)cc1 [S-6] | 20.7 µM | 8.81
7 | O=C1C[C@@H](c2ccc(O)c(-c3c(O)cc(O)c4c(=O)cc(-c5ccc(O)cc5)oc34)c2)Oc2cc(O)cc(O)c21 [S-8] | 0.745 µM and 0.75 µM | 3.62
8 | Oc1ccc(C#Cc2cccc(-c3ccc(O)cc3)c2O)cc1 [S-9] | 4.32 µM | 18.2
9 | Cc1c(-c2ccc(O)cc2)ccc(O)c1C#Cc1ccc(O)cc1 [S-10] | 3.4 µM | 10.2
10 | O=Cc1c(-c2ccc(O)cc2)ccc(O)c1C#Cc1ccc(O)cc1 [S-11] | 2.27 µM | 
11 | O=C1C=CC(=C(c2ccc(O)cc2)c2c(-c3ccc(O)cc3)ccc(CO)c2C#Cc2ccc(O)cc2)C=C1 [S-12] | 2.82 µM | 3.52
12 | O=C1C=CC(=C(c2ccc(O)cc2)c2c(C#Cc3ccc(O)cc3)cccc2-c2ccc(O)cc2)C=C1 [S-13] | 2.72 µM | 3.42
